Results published in PubChem BioAssay AID256 (DTP/NCI, 2004).
Several values for one entry are separate records, joined by “and”; a condition that tells them apart may be missing. Identical values can stand only once. Inconclusive results and toxic doses are left out.

Tested on: CD2F1 mice, L1210 leukemia ip, survival T/C
Assay: NCI In Vivo Anticancer Drug Screen. Data for tumor model L1210 Leukemia (intraperitoneal) in CD2F1 (CDF1) mice
Settings: higher = longer survival
Procedure, shortened: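 Activity against a transplanted murine tumor was judged by comparing the compound group with a vehicle group. The outcome in the treated animals was divided by that in the controls.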

## COc1cccc2c1C(=O)c1c(O)c3c(c(O)c1C2=O)C[C@@](O)(C(=O)CO)C[C@@H]3OC1CC(N)C(O)C(C)O1 (some centres not stated)
endpoint: mean survival time, dose: 0.06 mg/kg/injection, schedule: Q01DX009 (ip), vehicle: saline
  T/C: 105 % of control
endpoint: mean survival time, dose: 0.12 mg/kg/injection, schedule: Q01DX009 (ip), vehicle: saline
  T/C: 114 % of control
endpoint: mean survival time, dose: 0.2 mg/kg/injection, schedule: Q01DX009 (ip), vehicle: water
  T/C: 113 % of control and 114 % of control
endpoint: mean survival time, dose: 0.25 mg/kg/injection, schedule: Q01DX005 (ip), vehicle: water
  T/C: 121 % of control
endpoint: mean survival time, dose: 0.38 mg/kg/injection, schedule: Q01DX009 (ip), vehicle: saline
  T/C: 121 % of control
endpoint: mean survival time, dose: 0.39 mg/kg/injection, schedule: Q01DX009 (ip), vehicle: water
  T/C: 117 % of control
endpoint: mean survival time, dose: 0.43 mg/kg/injection, schedule: Q01DX009 (ip), vehicle: saline
  T/C: 120 % of control
endpoint: mean survival time, dose: 0.62 mg/kg/injection, schedule: Q04DX003 (ip), vehicle: water
  T/C: 120 % of control
endpoint: mean survival time, dose: 0.63 mg/kg/injection, schedule: Q04DX003 (ip), vehicle: water
  T/C: 123 % of control
endpoint: mean survival time, dose: 0.72 mg/kg/injection, schedule: Q01DX009 (ip), vehicle: saline
  T/C: 173 % of control
endpoint: mean survival time, dose: 1.0 mg/kg/injection, schedule: Q01DX001 (ip), vehicle: water
  T/C: 101 % of control
endpoint: mean survival time, dose: 1.0 mg/kg/injection, schedule: Q01DX005 (ip), vehicle: water
  T/C: 174 % of control
endpoint: mean survival time, dose: 1.08 mg/kg/injection, schedule: Q04DX003 (ip), vehicle: saline
  T/C: 124 % of control
endpoint: mean survival time, dose: 1.2 mg/kg/injection, schedule: Q01DX009 (ip), vehicle: saline
  T/C: 204 % of control
endpoint: mean survival time, dose: 1.68 mg/kg/injection, schedule: Q01DX001 (ip), vehicle: water
  T/C: 159 % of control
endpoint: mean survival time, dose: 1.68 mg/kg/injection, schedule: Q01DX009 (ip), vehicle: water
  T/C: 160 % of control
endpoint: mean survival time, dose: 1.7 mg/kg/injection, schedule: Q01DX001 (ip), vehicle: water
  T/C: 99 % of control
endpoint: mean survival time, dose: 1.8 mg/kg/injection, schedule: Q04DX003 (ip), vehicle: saline
  T/C: 121 % of control
endpoint: mean survival time, dose: 2.0 mg/kg/injection, schedule: Q01DX001 (ip), vehicle: saline
  T/C: 102 % of control
endpoint: mean survival time, dose: 2.5 mg/kg/injection, schedule: Q04DX003 (ip), vehicle: water
  T/C: 187 % of control
endpoint: mean survival time, dose: 2.8 mg/kg/injection, schedule: Q01DX001 (ip), vehicle: water
  T/C: 155 % of control
endpoint: mean survival time, dose: 2.8 mg/kg/injection, schedule: Q01DX009 (ip), vehicle: water
  T/C: 153 % of control
endpoint: mean survival time, dose: 2.9 mg/kg/injection, schedule: Q01DX001 (ip), vehicle: water
  T/C: 98 % of control
endpoint: mean survival time, dose: 3.0 mg/kg/injection, schedule: Q01DX009 (ip), vehicle: saline
  T/C: 114 % of control and 101 % of control
endpoint: mean survival time, dose: 3.13 mg/kg/injection, schedule: Q01DX009 (ip), vehicle: water
  T/C: 101 % of control
endpoint: mean survival time, dose: 4.0 mg/kg/injection, schedule: Q01DX001 (ip), vehicle: saline
  T/C: 193 % of control
endpoint: mean survival time, dose: 4.67 mg/kg/injection, schedule: Q01DX001 (ip), vehicle: water
  T/C: 166 % of control
endpoint: mean survival time, dose: 4.67 mg/kg/injection, schedule: Q01DX009 (ip), vehicle: water
  T/C: 100 % of control
endpoint: mean survival time, dose: 4.8 mg/kg/injection, schedule: Q01DX001 (ip), vehicle: water
  T/C: 102 % of control
endpoint: mean survival time, dose: 5.0 mg/kg/injection, schedule: Q01DX001 (ip), vehicle: saline
  T/C: 150 % of control and 171 % of control
endpoint: mean survival time, dose: 5.0 mg/kg/injection, schedule: Q01DX001 (ip), vehicle: water
  T/C: 151 % of control and 178 % of control
endpoint: mean survival time, dose: 5.0 mg/kg/injection, schedule: Q04DX003 (ip), vehicle: water
  T/C: 166 % of control
endpoint: mean survival time, dose: 5.4 mg/kg/injection, schedule: Q01DX001 (ip), vehicle: saline
  T/C: 151 % of control and 260 % of control
endpoint: mean survival time, dose: 6.6 mg/kg/injection, schedule: Q01DX001 (ip), vehicle: saline
  T/C: 193 % of control
endpoint: mean survival time, dose: 7.78 mg/kg/injection, schedule: Q01DX001 (ip), vehicle: water
  T/C: 153 % of control
endpoint: mean survival time, dose: 8.0 mg/kg/injection, schedule: Q01DX001 (ip), vehicle: saline
  T/C: 208 % of control
endpoint: mean survival time, dose: 8.0 mg/kg/injection, schedule: Q01DX001 (ip), vehicle: water
  T/C: 98 % of control
endpoint: mean survival time, dose: 8.0 mg/kg/injection, schedule: Q04DX003 (ip), vehicle: saline
  T/C: 163 % of control
endpoint: mean survival time, dose: 8.0 mg/kg/injection, schedule: Q04DX003 (ip), vehicle: water
  T/C: 116 % of control
endpoint: mean survival time, dose: 10.0 mg/kg/injection, schedule: Q01DX001 (ip), vehicle: water
  T/C: 169 % of control and 176 % of control
endpoint: mean survival time, dose: 10.0 mg/kg/injection, schedule: Q04DX003 (ip), vehicle: water
  T/C: 89 % of control
endpoint: mean survival time, dose: 12.96 mg/kg/injection, schedule: Q01DX001 (ip), vehicle: water
  T/C: 161 % of control
endpoint: mean survival time, dose: 13.33 mg/kg/injection, schedule: Q01DX001 (ip), vehicle: water
  T/C: 104 % of control
endpoint: mean survival time, dose: 15.0 mg/kg/injection, schedule: Q01DX001 (ip), vehicle: saline
  T/C: 196 % of control and 201 % of control
endpoint: mean survival time, dose: 18.0 mg/kg/injection, schedule: Q01DX001 (ip), vehicle: saline
  T/C: 121 % of control
endpoint: mean survival time, dose: 20.0 mg/kg/injection, schedule: Q01DX001 (ip), vehicle: saline
  T/C: 225 % of control
endpoint: mean survival time, dose: 20.0 mg/kg/injection, schedule: Q01DX001 (ip), vehicle: water
  T/C: 121 % of control and 263 % of control
endpoint: mean survival time, dose: 22.23 mg/kg/injection, schedule: Q01DX001 (ip), vehicle: water
  T/C: 119 % of control
endpoint: mean survival time, dose: 40.0 mg/kg/injection, schedule: Q01DX001 (ip), vehicle: water
  T/C: 100 % of control
endpoint: mean survival time, dose: 20.0 micrograms/kg/injection, schedule: Q01DX005 (ip), vehicle: saline
  T/C: 100 % of control
endpoint: mean survival time, dose: 40.0 micrograms/kg/injection, schedule: Q01DX005 (ip), vehicle: saline
  T/C: 117 % of control
endpoint: median survival time, dose: 0.5 mg/kg/injection, schedule: Q01DX009 (ip), vehicle: saline
  T/C: 170 % of control
endpoint: median survival time, dose: 1.0 mg/kg/injection, schedule: Q01DX005 (ip), vehicle: water
  T/C: 150 % of control
endpoint: median survival time, dose: 2.0 mg/kg/injection, schedule: Q01DX005 (ip), vehicle: water
  T/C: 162 % of control
endpoint: median survival time, dose: 2.0 mg/kg/injection, schedule: Q04DX003 (ip), vehicle: water
  T/C: 163 % of control
endpoint: median survival time, dose: 2.16 mg/kg/injection, schedule: Q04DX003 (ip), vehicle: saline
  T/C: 115 % of control
endpoint: median survival time, dose: 3.6 mg/kg/injection, schedule: Q01DX001 (ip), vehicle: saline
  T/C: 151 % of control
endpoint: median survival time, dose: 3.6 mg/kg/injection, schedule: Q04DX003 (ip), vehicle: saline
  T/C: 113 % of control
endpoint: median survival time, dose: 4.0 mg/kg/injection, schedule: Q04DX003 (ip), vehicle: saline
  T/C: 157 % of control
endpoint: median survival time, dose: 4.0 mg/kg/injection, schedule: Q04DX003 (ip), vehicle: water
  T/C: 339 % of control
endpoint: median survival time, dose: 4.8 mg/kg/injection, schedule: Q01DX001 (ip), vehicle: saline
  T/C: 103 % of control
endpoint: median survival time, dose: 5.0 mg/kg/injection, schedule: Q01DX001 (ip), vehicle: saline
  T/C: 150 % of control and 155 % of control
endpoint: median survival time, dose: 6.0 mg/kg/injection, schedule: Q01DX001 (ip), vehicle: saline
  T/C: 152 % of control
endpoint: median survival time, dose: 6.0 mg/kg/injection, schedule: Q04DX003 (ip), vehicle: saline
  T/C: 115 % of control
endpoint: median survival time, dose: 8.0 mg/kg/injection, schedule: Q01DX009 (ip), vehicle: saline
  T/C: 104 % of control
endpoint: median survival time, dose: 8.0 mg/kg/injection, schedule: Q04DX003 (ip), vehicle: saline
  T/C: 154 % of control
endpoint: median survival time, dose: 8.0 mg/kg/injection, schedule: Q04DX003 (ip), vehicle: water
  T/C: 182 % of control and 339 % of control
endpoint: median survival time, dose: 8.4 mg/kg/injection, schedule: Q04DX003 (ip), vehicle: water
  T/C: 103 % of control
endpoint: median survival time, dose: 9.6 mg/kg/injection, schedule: Q01DX001 (ip), vehicle: saline
  T/C: 113 % of control and 216 % of control
endpoint: median survival time, dose: 14.0 mg/kg/injection, schedule: Q04DX003 (ip), vehicle: water
  T/C: 78 % of control
endpoint: median survival time, dose: 16.0 mg/kg/injection, schedule: Q01DX001 (ip), vehicle: water
  T/C: 76 % of control
endpoint: median survival time, dose: 16.0 mg/kg/injection, schedule: Q01DX001 (iv), vehicle: water
  T/C: 193 % of control
endpoint: median survival time, dose: 20.0 mg/kg/injection, schedule: Q01DX001 (ip), vehicle: saline
  T/C: 71 % of control
endpoint: median survival time, dose: 26.7 mg/kg/injection, schedule: Q01DX001 (ip), vehicle: saline
  T/C: 99 % of control
endpoint: median survival time, dose: 32.0 mg/kg/injection, schedule: Q01DX001 (iv), vehicle: water
  T/C: 65 % of control
endpoint: median survival time, dose: 40.0 mg/kg/injection, schedule: Q01DX001 (ip), vehicle: saline
  T/C: 53 % of control

## Nc1nc2c(c(=O)[nH]1)N(CCCCCO)C(CNc1ccc(C(=O)NC(CCC(=O)O)C(=O)O)cc1)CN2 (configuration not stated)
endpoint: mean survival time, dose: 100.0 mg/kg/injection, schedule: Q01DX001 (ip), vehicle: saline
  T/C: 97 % of control
endpoint: mean survival time, dose: 200.0 mg/kg/injection, schedule: Q01DX001 (ip), vehicle: saline
  T/C: 103 % of control
endpoint: mean survival time, dose: 400.0 mg/kg/injection, schedule: Q01DX001 (ip), vehicle: saline
  T/C: 97 % of control

## NC1CCCCC1N.O=S(=O)([O-])c1cccc(S(=O)(=O)[O-])c1.[Pt+4]
endpoint: median survival time, dose: 6.25 mg/kg/injection, schedule: Q04DX003 (ip), vehicle: saline with Tween-80
  T/C: 166 % of control
endpoint: median survival time, dose: 12.5 mg/kg/injection, schedule: Q04DX003 (ip), vehicle: saline with Tween-80
  T/C: 237 % of control and 370 % of control
endpoint: median survival time, dose: 25.0 mg/kg/injection, schedule: Q04DX003 (ip), vehicle: saline with Tween-80
  T/C: 296 % of control and 325 % of control
